Experimental findings from patent publication US20230025510A1, “BIARYL ETHER-TYPE QUINAZOLINE DERIVATIVES” (DAIICHI SANKYO COMPANY, LIMITED, priority 2018, published 2023) are described below.

The structures appear in SMILES notation.

Holding throughout (format): cell-based
The test system of assay [1] is Ba/F3-EGFR ins. SVD cells. Put plainly: Cell proliferation suppression test (CellTiter-Glo, GI50), Ba/F3-EGFR ins. SVD. The conditions noted are these: Mus musculus, 72 h, 3 days, N=4. How it is done: (§1) Cell proliferation suppression test Ba/F3-Mock, Ba/F3-EGFR WT, Ba/F3-EGFR ins. ASV, and Ba/F3-EGFR ins. SVD cell lines were cultured based on a culture medium of 10% FBS-containing RPMI 1640 supplemented with 1.5 ug/mL puromycin, and 5 ng/mL IL-3 and 100 ng/mL of EGF were further added to the culture solution for Ba/F3-Mock and Ba/F3-EGFR WT, respectively. The cells were cultured in a CO2 incubator set at 37° C., 5% CO2. Specimens prepared by dilution were seeded into 384-well tissue culture plates with Echo555 (Labcyte Inc.), and the cells were seeded thereto at 400 cells/well for Ba/F3-Mock, Ba/F3-EGFR WT, and Ba/F3-EGFR ins. SVD and at 200 cells/well for Ba/F3-EGFR ins. ASV (day 0), then they were cultured for an additional 3 days. On the day of the compound addition (day 0) and 3 days after the compound addition (day 3), ATP quantity was measured with CellTiter-Glo (registered trademark) 2.0 (Promega Corporation.), and used as an indicator of cell quantity (N=4). In the test, puromycin-free culture medium was used. Concentrations at which cell proliferation from day 0 to day 3 was inhibited by 50% (GIso) were calculated with EXCEL.

Assay [2] concerns Ba/F3-EGFR ins. ASV cells. Kind of assay: Cell proliferation suppression test (CellTiter-Glo, GI50), Ba/F3-EGFR ins. ASV. The conditions noted are these: Mus musculus, 72 h, 3 days, N=4. The procedure: as §1
On the technique in general: ATP-based viability assays read luminescence as a measure of living cells.

The next assay deals with Ba/F3-Mock cells. Put plainly: Cell proliferation suppression test (CellTiter-Glo, GI50), Ba/F3-Mock. The conditions noted are these: Mus musculus, BaF3, 72 h, 5 ng/mL IL-3, 3 days, N=4. The procedure:
as §1

A further assay has as its system Ba/F3-EGFR WT cells. Kind of assay: Cell proliferation suppression test (CellTiter-Glo, GI50), Ba/F3-EGFR WT. The conditions noted are these: Mus musculus, 72 h, 100 ng/mL EGF, 3 days, N=4. The procedure: as §1

As a reminder, the GI50 is the concentration giving 50% growth inhibition. Read a high GI50 as lower sensitivity of the cells. Regarding `C=CC(=O)N1CCC(Oc2cc3c(Nc4ccc(Oc5nc(-c6ccc(OC)nc6)cs5)cc4F)ncnc3cc2OC)CC1` [Example 35, 1-(4-{[4-(2-Fluoro-4-{[4-(6-methoxypyridin-3-yl)-1,3-thiazol-2-yl]oxy}anilino)-7-methoxyquinazolin-6-yl]oxy}piperidin-1-yl)prop-2-en-1-one], the GI50 in assay [1] is 12.9 nM; in assay [2], 14.8 nM; with Ba/F3-Mock cells, greater than 10000 nM; in the assay on Ba/F3-EGFR WT cells, 213 nM.

Consider `C=CC(=O)N1CCC(Oc2cc3c(Nc4ccc(Oc5nc(-c6cnc(C)nc6)cs5)cc4F)ncnc3cc2OC)CC1` [Example 36, 1-(4-{[4-(2-Fluoro-4-{[4-(2-methylpyrimidin-5-yl)-1,3-thiazol-2-yl]oxy}anilino)-7-methoxyquinazolin-6-yl]oxy}piperidin-1-yl)prop-2-en-1-one], for which the GI50 was 10 nM in assay [1], 12 nM in assay [2], greater than 10000 nM with Ba/F3-Mock cells and 377 nM in the assay on Ba/F3-EGFR WT cells.

For the compound `C=CC(=O)N1CCC(Oc2cc3c(Nc4ccc(Oc5nc(-c6ccc(C)nc6)cs5)cc4F)ncnc3cc2OC)CC1` [Example 37, 1-(4-{[4-(2-Fluoro-4-{[4-(6-methylpyridin-3-yl)-1,3-thiazol-2-yl]oxy}anilino)-7-methoxyquinazolin-6-yl]oxy}piperidin-1-yl)prop-2-en-1-one], the GI50 is 5.7 nM in assay [1], 10.5 nM in assay [2], greater than 10000 nM with Ba/F3-Mock cells and 163 nM in the assay with Ba/F3-EGFR WT cells.

Regarding `C=CC(=O)N1CCC(Oc2cc3c(Nc4ccc(Oc5nc(-c6cncc(F)c6)cs5)cc4F)ncnc3cc2OC)CC1` [Example 38, 1-(4-{[4-(2-Fluoro-4-{[4-(5-fluoropyridin-3-yl)-1,3-thiazol-2-yl]oxy}anilino)-7-methoxyquinazolin-6-yl]oxy}piperidin-1-yl)prop-2-en-1-one], the GI50 in assay [1] was 18.3 nM; in assay [2] it was 17 nM; with Ba/F3-Mock cells it was greater than 10000 nM; in the assay on Ba/F3-EGFR WT cells, 174 nM.

For `COc1cc2ncnc(Nc3ccc(Oc4cccc(-c5nnc(C)o5)c4)cc3F)c2cc1NC(=O)/C=C/CN(C)C` [Example 39, (2E)-4-(Dimethylamino)-N-(4-{2-fluoro-4-[3-(5-methyl-1,3,4-oxadiazol-2-yl)phenoxy]anilino}-7-methoxyquinazolin-6-yl)but-2-enamide], the GI50 in assay [1] came out at 58.7 nM; in assay [2], 12.2 nM; in the assay on Ba/F3-Mock cells it was 1150 nM; in the assay with Ba/F3-EGFR WT cells, 161 nM.

As for `CCOc1cc2ncnc(Nc3ccc(Oc4cccc(-c5nnc(C)o5)c4)cc3F)c2cc1NC(=O)/C=C/CN(C)C` [Example 40, (2E)-4-(Dimethylamino)-N-(7-ethoxy-4-{2-fluoro-4-[3-(5-methyl-1,3,4-oxadiazol-2-yl)phenoxy]anilino}quinazolin-6-yl)but-2-enamide], the GI50 worked out at 32.9 nM in assay [1], 5.5 nM in assay [2], 765 nM in the assay with Ba/F3-Mock cells and 80.1 nM with Ba/F3-EGFR WT cells.

As to `CCc1nnc(-c2cccc(Oc3ccc(Nc4ncnc5cc(OC)c(NC(=O)/C=C/CN(C)C)cc45)c(F)c3)c2)o1` [Example 41, (2E)-4-(Dimethylamino)-N-(4-{4-[3-(5-ethyl-1,3,4-oxadiazol-2-yl)phenoxy]-2-fluoroanilino)-7-methoxyquinazolin-6-yl)but-2-enamide], the GI50 in assay [1] worked out at 27 nM; in assay [2], 8.2 nM; in the assay on Ba/F3-Mock cells it was 841 nM; in the assay on Ba/F3-EGFR WT cells, 114 nM.

`CCOc1cc2ncnc(Nc3ccc(Oc4cccc(-c5nnc(CC)o5)c4)cc3F)c2cc1NC(=O)/C=C/CN(C)C` [Example 42, (2E)-4-(Dimethylamino)-N-(7-ethoxy-4-{4-[3-(5-ethyl-1,3,4-oxadiazol-2-yl)phenoxy]-2-fluoroanilino}quinazolin-6-yl)but-2-enamide]: the GI50 came to 17.7 nM in assay [1], 5.1 nM in assay [2], 764 nM in the assay with Ba/F3-Mock cells and 103 nM with Ba/F3-EGFR WT cells.
